Literature values in US10039775B2, “Preparation method for antitumor drug AP26113” (SUZHOU MIRACPHARMA TECHNOLOGY CO., LTD., priority 2015, dated 2018).

Columns and labels:
[1] = tested on: ALK positive nonsmall cell lung cancer; settings: clinical data; patients with ALK positive nonsmall cell lung cancer, including brain metastases patients
[2] = tested on: crizotinib resistant ALK mutation; settings: nine identified crizotinib resistant ALK mutations
ALK = ALK (Homo sapiens, UniProt Q9UM73); settings: ratio versus crizotinib
Sequence of ALK (Q9UM73 19-1620): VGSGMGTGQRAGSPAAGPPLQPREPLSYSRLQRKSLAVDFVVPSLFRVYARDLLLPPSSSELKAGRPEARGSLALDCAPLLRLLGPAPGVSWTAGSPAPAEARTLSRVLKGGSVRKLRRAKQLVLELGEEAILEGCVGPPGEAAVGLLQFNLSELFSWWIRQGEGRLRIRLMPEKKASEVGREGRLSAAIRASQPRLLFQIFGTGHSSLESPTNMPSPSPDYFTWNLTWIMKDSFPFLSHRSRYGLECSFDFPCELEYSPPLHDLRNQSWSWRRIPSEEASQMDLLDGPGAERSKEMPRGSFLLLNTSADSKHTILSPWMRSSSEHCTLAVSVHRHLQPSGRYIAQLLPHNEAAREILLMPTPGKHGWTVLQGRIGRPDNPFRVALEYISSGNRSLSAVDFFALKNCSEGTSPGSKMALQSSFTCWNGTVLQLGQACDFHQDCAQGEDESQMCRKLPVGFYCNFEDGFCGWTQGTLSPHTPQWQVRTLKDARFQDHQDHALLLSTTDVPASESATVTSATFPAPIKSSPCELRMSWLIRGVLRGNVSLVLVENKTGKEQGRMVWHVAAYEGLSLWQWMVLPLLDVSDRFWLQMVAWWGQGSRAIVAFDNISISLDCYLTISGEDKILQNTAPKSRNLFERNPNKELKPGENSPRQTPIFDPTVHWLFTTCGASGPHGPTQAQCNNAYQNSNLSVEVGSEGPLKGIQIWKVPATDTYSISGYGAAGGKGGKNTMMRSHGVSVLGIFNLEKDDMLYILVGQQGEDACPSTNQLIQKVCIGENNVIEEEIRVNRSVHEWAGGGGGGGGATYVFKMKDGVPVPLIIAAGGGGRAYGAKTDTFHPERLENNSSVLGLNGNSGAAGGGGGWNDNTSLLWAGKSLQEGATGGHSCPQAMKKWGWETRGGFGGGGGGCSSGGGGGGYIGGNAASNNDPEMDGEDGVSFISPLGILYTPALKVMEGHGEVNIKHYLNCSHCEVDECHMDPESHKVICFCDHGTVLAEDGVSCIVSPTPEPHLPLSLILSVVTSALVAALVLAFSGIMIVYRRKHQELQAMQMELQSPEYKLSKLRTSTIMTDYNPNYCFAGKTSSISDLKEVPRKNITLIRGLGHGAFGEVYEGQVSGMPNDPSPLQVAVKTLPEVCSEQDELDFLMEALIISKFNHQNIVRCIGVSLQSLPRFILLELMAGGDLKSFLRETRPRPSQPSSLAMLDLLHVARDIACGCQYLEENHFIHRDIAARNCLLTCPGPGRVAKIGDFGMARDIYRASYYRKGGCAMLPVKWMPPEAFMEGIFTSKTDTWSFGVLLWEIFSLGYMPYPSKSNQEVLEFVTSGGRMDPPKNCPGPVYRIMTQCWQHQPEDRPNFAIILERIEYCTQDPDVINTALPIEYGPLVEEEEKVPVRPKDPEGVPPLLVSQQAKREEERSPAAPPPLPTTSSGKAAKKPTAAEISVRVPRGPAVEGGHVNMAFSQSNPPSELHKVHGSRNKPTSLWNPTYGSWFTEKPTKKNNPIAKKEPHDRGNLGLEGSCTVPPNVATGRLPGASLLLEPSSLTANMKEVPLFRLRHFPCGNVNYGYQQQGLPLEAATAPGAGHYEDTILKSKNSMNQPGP

Structure (SMILES): COc1cc(N2CCC(N(C)C)CC2)ccc1Nc1ncc(Cl)c(Nc2ccccc2P(C)(C)=O)n1 [AP26113, 5-chloro-N2-[4-[4-(dimethylamino)-1-piperidyl]-2-methoxyphenyl]-N4-[2-(dimethyl phosphitylate)phenyl]-2,4-diaminopyrimidine]
- anti-tumor activity on patients [1]: continuous anti-tumor activity
- inhibition of all nine identified crizotinib resistant ALK mutation [2]: can be inhibited
- inhibitory activity to ALK relative to the inhibitor activity of crizotinib to ALK (ALK): about 10 times
